According to US11478453B2, “Treatment for glioblastoma” (HADASIT MEDICAL RESEARCH SERVICES AND DEVELOPMENT LTD., priority 2016, dated 2022):

What was measured:
U87MG cells = assay: Crystal violet cell viability, U87MG glioma cells; type: cell-based, human
Procedure: (§1) A172 and U87MG cells were cultured in DMEM-Eagle medium supplemented with 4 mmol/L L-glutamine, 100 units/ml penicillin and 100 μg/ml streptomycin, and 10% FBS Charcoal Stripped (Biological Industries, Israel). The T98G cells were cultured in Eagle's minimum essential medium supplemented with 4 mmol/L L-glutamine, 100 units/ml penicillin and 100 μg/ml streptomycin. To avoid the influence of FBS derived steroid hormone on AR, the cell media were supplemented with 10% charcoal/dextran-treated (stripped) FBS (Biological Industries). The cells were maintained in a humidified incubator at 37° C. in 5% CO2.

A172 cells = assay: Crystal violet cell viability, A172 glioma cells; type: cell-based
Procedure: as §1

T98G cells = assay: Crystal violet cell viability, T98G glioma cells (single agents and combinations)
Procedure: as §1
The effect of combination therapies that involve anti-AR signaling agents together with agents that target EGFR on AR modulation was examined in glial tumor cells expressing a ligand independent AR splice variant.

[1] = Homo sapiens, 72 h, read-out: Cell viability, percentage of cells treated with vehicle
[2] = Homo sapiens, 72 h, read-out: Cell viability, percentage of cells treated with DHT

C[C@]12CCC(=O)C[C@@H]1CC[C@@H]1[C@@H]2CC[C@]2(C)[C@@H](O)CC[C@@H]12 [DHT, 5α-dihydrotestosterone]
Effect of DHT on cell viability versus vehicle (U87MG cells; 10 μM DHT, vehicle 0.15% ETOH): no effect on cell viability | Effect of DHT on cell viability versus vehicle (A172 cells; A172, 10 μM DHT, vehicle 0.15% ETOH): no effect on cell viability | Effect of DHT on cell viability versus vehicle (T98G cells; 10 μM DHT, vehicle 0.15% ETOH): no effect on cell viability

CN(C)C/C=C/C(=O)Nc1cc2c(Nc3ccc(F)c(Cl)c3)ncnc2cc1O[C@H]1CCOC1 [afatinib]
viability at 1.25 µM (T98G cells; [1]): 92% | viability at 5 µM (T98G cells; [1]): 47%

CC(O)(CS(=O)(=O)c1ccc(F)cc1)C(=O)Nc1ccc(C#N)c(C(F)(F)F)c1 (stereo not shown) [bicalutamide]
viability at 20 µM (U87MG cells; Homo sapiens, U-87 MG, 20 uM, 72 hrs, with 10 μM DHT, read-out: Cell viability, percentage of cells treated with DHT): 83% | viability at 80 µM (U87MG cells; Homo sapiens, U-87 MG, 80 uM, 72 hrs, with 10 μM DHT, read-out: Cell viability, percentage of cells treated with DHT): 31% | viability at 20 µM (A172 cells; Homo sapiens, A 172, A172, 20 uM, 72 hrs, with 10 μM DHT, read-out: Cell viability, percentage of cells treated with DHT): 90% | viability at 80 µM (A172 cells; Homo sapiens, A 172, A172, 80 uM, 72 hrs, with 10 μM DHT, read-out: Cell viability, percentage of cells treated with DHT): 43% | viability at 20 µM (T98G cells; [2]): 90% | viability at 80 µM (T98G cells; [2]): 59%

C#Cc1cccc(Nc2ncnc3cc(OCCOC)c(OCCOC)cc23)c1 [erlotinib]
viability at 1.25 µM (T98G cells; [1]): 94% | viability at 10 µM (T98G cells; [1]): 63%
